# Data reported in US9090593B2, “Bicyclic compounds as Pim inhibitors” (AMGEN INC., priority 2010, dated 2015).
# Columns and labels:
# [1] = biological target: T1, Pim-2 stably transfected into the U2OS human osteogenic sarcoma line (Homo sapiens, UniProt Q9P1W9); test: Pim cell assay, phospho-BAD normalized against total BAD, U2OS stably transfected with Pim-2; type: cell-based; settings: U2OS stably transfected with Pim-2; phospho-BAD normalized against total BAD; 29 min incubation; read-out: Pim2_Cell_IC50_
# T1 construct: expressed in transfected cells; host or cells: U2OS human osteogenic sarcoma line
# Procedure: (§1) The cell lines used in the assay were generated by the stable transfection of either Pim-1 or Pim-2 into the U2OS human osteogenic sarcoma line. The assay for determination of the Pim activity in the engineered U2OS cell lines measures levels of phospho-BAD normalized against total BAD protein levels. It was conducted as follows:
# (§2) The adherent cells were dissociated from the flasks using non-enzymatic cell dissociation solution (Sigma # C5914). […] The cells were then incubated overnight at 37° C., 5% CO2.
# (§3) In addition to the 10-point dosing curve of the test compound, DMSO alone was run as the high control.
# (§4) This dilution in DMSO was then diluted again into cell growth medium. Aliquots (12 uL) of the compound diluted in growth medium were then transferred to the appropriate wells of the 96-well plates containing cells to yield a final DMSO concentration of 0.3%.
# (§5) The cell plates containing lysis buffer were then immediately stored at −70° C.
# (§6) These prepared lysates were then assayed for phospho and total BAD according to the manufacturer's protocols (Meso Scale Diagnostics, Cat# K15103C-3 & # K15103D-3). The plates were read on the MSD Sector Imager 6000, and results were calculated according to the assay protocols ((% Phosphoprotein=((2×Phospho signal)/(Phospho signal+Total signal))×100)).
# [2] = biological target: T2, full length recombinant Pim-2 protein (Homo sapiens, UniProt Q9P1W9); test: Pim-2 enzyme assay (HTRF, phosphorylation of biotinylated-BAD (S112) peptide); type: biochemical; settings: read-out: Pim2_IC50
# T2 construct: by full length recombinant Pim-1, Pim-2, or Pim-3 protein; hexahistidine tag followed by a thrombin cleavage site (N); made in house; host or cells: Sf9 (baculovirus) or E. coli (pET28)
# Outline: (§7)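 Full-length His-tagged Pim-1 or Pim-2 (Sf9 or E. coli expressed, purified) phosphorylated biotinylated BAD (S112) peptide in 60 mM Hepes pH 7.0, 0.05% BSA, 2 mM DTT. Reaction stopped with 3 mM EDTA; phospho-BAD read by HTRF with Eu anti-phospho-BAD antibody and streptavidin-APC. IC50 from percent of control by 4-parameter logistic fit.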
# [3] = biological target: T3, full length recombinant Pim-1 protein (Homo sapiens, UniProt P11309); test: Pim-1 enzyme assay (HTRF, phosphorylation of biotinylated-BAD (S112) peptide); type: biochemical; settings: read-out: Pim_1_IC50
# T3 construct: by full length recombinant Pim-1, Pim-2, or Pim-3 protein; hexahistidine tag followed by a thrombin cleavage site (N); made in house; host or cells: Sf9 (baculovirus) or E. coli (pET28)
# Outline: as §7
# [4] = biological target: T4, Pim-1 stably transfected into the U2OS human osteogenic sarcoma line (Homo sapiens, UniProt P11309); test: Pim cell assay, phospho-BAD normalized against total BAD, U2OS stably transfected with Pim-1; type: cell-based; settings: U2OS stably transfected with Pim-1; phospho-BAD normalized against total BAD; 29 min incubation; read-out: Pim1_Cell_IC50_
# T4 construct: expressed in transfected cells; host or cells: U2OS human osteogenic sarcoma line
# Procedure: as §1, §2, §3, §4, §5, §6
# T1 sequence (Q9P1W9 whole entry): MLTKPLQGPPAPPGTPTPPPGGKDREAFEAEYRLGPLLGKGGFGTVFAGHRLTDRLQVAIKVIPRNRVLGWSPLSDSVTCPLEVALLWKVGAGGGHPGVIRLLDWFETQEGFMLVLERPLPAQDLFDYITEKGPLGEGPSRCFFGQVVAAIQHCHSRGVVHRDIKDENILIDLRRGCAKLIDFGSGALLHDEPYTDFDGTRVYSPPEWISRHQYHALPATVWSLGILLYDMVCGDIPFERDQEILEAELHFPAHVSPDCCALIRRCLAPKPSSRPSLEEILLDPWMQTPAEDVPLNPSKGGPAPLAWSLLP
# T2 sequence (Q9P1W9 whole entry): as above
# T4 sequence (P11309 whole entry): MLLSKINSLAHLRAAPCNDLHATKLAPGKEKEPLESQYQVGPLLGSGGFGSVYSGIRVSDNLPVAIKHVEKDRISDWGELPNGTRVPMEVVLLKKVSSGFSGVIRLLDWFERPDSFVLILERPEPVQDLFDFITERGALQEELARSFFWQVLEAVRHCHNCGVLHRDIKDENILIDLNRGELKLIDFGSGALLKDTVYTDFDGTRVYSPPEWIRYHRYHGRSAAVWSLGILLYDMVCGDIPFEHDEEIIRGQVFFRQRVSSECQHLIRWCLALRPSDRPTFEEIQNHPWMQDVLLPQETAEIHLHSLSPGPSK
# T3 sequence (P11309 whole entry): as above
SMILES,IC50 [1] [nM],IC50 [2] [nM],IC50 [3] [nM],IC50 [4] [nM]
Nc1ccc(-c2ccc3[nH]cc(-c4cncc(O[C@@H]5CCCNC5)n4)c3c2)cc1OC(F)(F)F [Example 341],> 15800,69,9,1270
c1cc2c(cc1-c1ccc3[nH]cc(-c4cncc(O[C@@H]5CCCNC5)n4)c3c1)OCO2 [Example 343],> 15800,19,4,1210
FC(F)Oc1cccc(-c2ccc3[nH]cc(-c4cncc(O[C@@H]5CCCNC5)n4)c3c2)c1 [Example 344],> 15800,68,9,3610
COc1ccc(-c2ccc3[nH]cc(-c4cncc(O[C@@H]5CCCNC5)n4)c3c2)cc1OC [Example 345],> 15800,157,20,729
CN1CCOc2cc(-c3ccc4[nH]cc(-c5cncc(O[C@@H]6CCCNC6)n5)c4c3)ccc21 [Example 347],9690,16,2,273
N#CC1(c2cccc(-c3ccc4[nH]cc(-c5cncc(O[C@@H]6CCCNC6)n5)c4c3)c2)CCC1 [Example 350],> 15800,193,6,2360
CC(C)Oc1cccc(-c2ccc3[nH]cc(-c4cncc(O[C@@H]5CCCNC5)n4)c3c2)c1 [Example 360],> 15800,94,8,2720
CC(C)NC(=O)c1ccc(F)c(-c2ccc3[nH]nc(-c4cncc(N[C@@H]5CCCNC5)n4)c3c2)c1 [Example 362],4150,7,3,864
CC(C)OC(=O)c1ccc2[nH]nc(-c3cncc(N4CCC(N)CC4)n3)c2c1 [Example 470],8790,8,2,204
COC(=O)c1ccc2[nH]nc(-c3cncc(N[C@@H]4CCCNC4)n3)c2c1 [Example 473],9630,44,4,221
"CC(C)OC(=O)c1ccc2[nH]nc(-c3cncc(N[C@@H]4CCCNC4)n3)c2c1 [Example 474, 1-methylethyl 3-(6-((3R)-3-piperidinylamino)-2-pyrazinyl)-1H-indazole-5-carboxylate]",14600,52,2,108
COC(=O)c1ccc2[nH]nc(-c3cncc(O[C@@H]4CCCNC4)n3)c2c1 [Example 476],31600,144,18,588
CC(C)OC(=O)c1ccc2[nH]nc(-c3cncc(O[C@@H]4CCCNC4)n3)c2c1 [Example 477],20300,126,8,348
NC1CCN(c2cc(O)nc(-c3n[nH]c4ccc(-c5c(F)cccc5F)cc34)n2)CC1 [Example 482],> 31600,4,1,1200
Oc1cc(-c2c[nH]c3ccc(-c4c(F)cccc4F)cc23)nc(N2CCOCC2)n1 [Example 483],> 31600,32,4,219
COC(=O)c1ccc2[nH]nc(-c3ccnc(N[C@@H]4CCCNC4)n3)c2c1 [Example 490],> 15800,54,13,522
COc1cc(-c2n[nH]c3ccc(-c4c(F)cccc4F)cc23)nc(N2CCC(N)CC2)n1 [Example 506],> 31600,33,15,3740
NC1CCN(c2cncc(-c3n[nH]c4ccc(-c5nccc6[nH]ccc56)cc34)n2)CC1 [Example 507],> 31600,65,3,> 31600
CC(C)Oc1cncc(-c2ccc3[nH]cc(-c4nnc(N5CCC[C@H](N)C5)o4)c3c2)n1 [Example 510],> 31600,78,17,1010
Oc1cc(N[C@@H]2CCCNC2)nc(-c2c[nH]c3ccc(-c4c(F)cccc4F)cc23)n1 [Example 515],> 31600,7,3,12000

# Next, values leading:
IC50 [1] [nM],IC50 [2] [nM],IC50 [3] [nM],IC50 [4] [nM],SMILES
> 31600,71,12,2070,c1cc(-c2ccc3[nH]nc(-c4cncc(O[C@@H]5CCCNC5)n4)c3c2)nc(C2CC2)n1 [Example 361]
8800,27,14,868,CC(O)c1cccc(-c2ccc3[nH]nc(-c4cncc(O[C@@H]5CCCNC5)n4)c3c2)c1 (stereo partly shown) [Example 367]
1770,37,6,23,"CC(C)Nc1cncc(-c2n[nH]c3ccc(-c4cncc(C5CC5)n4)cc23)n1 [Example 368, 6-(5-(6-cyclopropyl-2-pyrazinyl)-1H-indazol-3-yl)-N-(1-methylethyl)-2-pyrazinamine]"
> 10000,7,1,200,c1cc2[nH]nc(-c3cncc(OC4CCNCC45CC5)n3)c2cc1-c1cncc(C2CC2)n1 (stereo not shown) [Example 372]
3370,5,1,130,"c1cc2[nH]nc(-c3cncc(O[C@@H]4CCNCC45CC5)n3)c2cc1-c1cncc(C2CC2)n1 [Example 373, 3-(6-((8R)-5-azaspiro[2.5]oct-8-yloxy)-2-pyrazinyl)-5-(6-cyclopropyl-2-pyrazinyl)-1H-indazole]"
8090,17,1,312,"c1cc2[nH]nc(-c3cncc(O[C@H]4CCNCC45CC5)n3)c2cc1-c1cncc(C2CC2)n1 [Example 374, 3-(6-((8S)-5-azaspiro[2.5]oct-8-yloxy)-2-pyrazinyl)-5-(6-cyclopropyl-2-pyrazinyl)-1H-indazole]"
> 31600,16,2,657,COc1cncc(-c2n[nH]c3ccc(-c4cncc(C5CC5)n4)cc23)n1 [Example 379]
> 31600,37,4,772,CC(C)Oc1cncc(-c2n[nH]c3ccc(-c4cncc(C5CC5)n4)cc23)n1 [Example 381]
21800,10,1,44,"COc1cncc(-c2n[nH]c3ccc(-c4cncc(NC5CC5)n4)cc23)n1 [Example 383, N-cyclopropyl-6-(3-(6-methoxy-2-pyrazinyl)-1H-indazol-5-yl)-2-pyrazinamine]"
> 31600,27,4,207,FCCOc1cncc(-c2n[nH]c3ccc(-c4cncc(C5CC5)n4)cc23)n1 [Example 384]
> 31600,11,6,61,"Nc1cncc(-c2ccc3[nH]nc(-c4cncc(OCCF)n4)c3c2)n1 [Example 386, 6-(3-(6-(2-fluoroethoxy)-2-pyrazinyl)-1H-indazol-5-yl)-2-pyrazinamine]"
> 10000,12,2,114,"c1cc2[nH]nc(-c3cncc(NC4CC4)n3)c2cc1-c1cncc(C2CC2)n1 [Example 391, N-cyclopropyl-6-(5-(6-cyclopropyl-2-pyrazinyl)-1H-indazol-3-yl)-2-pyrazinamine]"
> 10000,66,13,212,CC(C)(O)CNc1cncc(-c2n[nH]c3ccc(-c4cncc(C5CC5)n4)cc23)n1 [Example 392]
8650,25,17,1130,c1cc2[nH]nc(-c3cncc(O[C@H]4CNCCC45CC5)n3)c2cc1N1CCOCC1 [Example 400]
> 15800,19,9,2580,Cc1ccccc1-c1ccc2[nH]nc(-c3cncc(O[C@H]4CNCCC45CC5)n3)c2c1 [Example 404]
> 15800,51,20,2070,FC(F)(F)c1ccccc1-c1ccc2[nH]nc(-c3cncc(O[C@H]4CNCCC45CC5)n3)c2c1 [Example 407]
31700,50,19,1150,Brc1ccc2[nH]nc(-c3cncc(O[C@@H]4CNCCC45CC5)n3)c2c1 [Example 421]
